# Experimental data: patent US10092000B2, “Structure, synthesis, and applications for oligo phenylene ethynylenes (OPEs)” (STC.UNM, priority 2010, dated 2018)
# “And” between values parts separate entries of the source, which are not always exact repeats. Equal values may be shown once.
# How the values were obtained:
# [1] = Absorption and fluorescence spectroscopy; type: physicochemical
# Description: Photophysical study. For the absorption and fluorescence spectroscopy, we prepared a stock solution with concentration of 1 mM oligomer and 10% v/v solution of DMSO in H2O. 30 μL of the sonicated suspension of each EO-OPE-1 was diluted into 3 mL solution in a quartz cuvette to give a concentration of 10 μM. Absorption and fluorescence were performed on plate reader (SpectroMax M-5 microplate reader, Molecular Devices) at 24° C. Transient absorption spectra were recorded for EO-OPE-1 samples in both methanol and water. Transient absorption spectra were collected using laser systems that are described elsewhere 1, 2. The optical density was adjusted to 0.7 at the excitation wavelength (355 nm) with the laser energy being 6-7 mJ. Solutions were purged with argon for […] before making transient absorption spectroscopy measurements.
# bacteriophage T4 = assay: Phage inactivation, phage titer (PFU), T4; type: cell-based; details: 10 ug/ml, in the dark, 1 hour
# Description: Bacteriophage Preparation and Titer. E. coli cells were grown in the standard Luria broth. The fresh E. coli culture was inoculated from an overnight culture followed by approximately three hours incubation at 37° C. to the exponential growth phase (O.D.600˜0.5). At this growth phase, the E. coli cells were collected by centrifuge and washed with Escherichia coli minimal medium (Glucose 5 g/L, Na2HPO4 6 g/L, KH2PO4 3 g/L, NH4Cl 1 g/L, NaCl 0.5 g/L, MgSO4, 0.12 g/L, CaCl2 0.01 g/L, pH 7.2) twice. The cell pellet was resuspended with minimal medium. The phage stock solutions were added into their corresponding bacterial host suspensions the phage-bacteria mixture incubated for 15 minutes at 37° C. for infection. The phage-bacteria mixture was transferred into fresh Escherichia coli minimal medium and incubated overnight for viral replication. […] The phage titer was determined by plaque forming units (PFU). […] After 6˜8 hours incubation, the plaque forming units were counted and phage solutions were diluted to 10^6˜10^7 PFU/ml with the minimal medium for further use.
# Phage Inactivation. […] The viral inactivation ability was determined by phage titer as stated above and calculated by log (N0/N), where N is the PFU of the phage solution after exposure to CPEs/OPEs; N0 represents the PFU of corresponding negative control (without CPEs, OPEs or UV-irradiation). […]
# S.epidermis = assay: Dead/live assay, biocidal activity against S.epidermis; type: cell-based, Staphylococcus epidermis; details: under 365 nm radiation
# Description: Dead/live assays were performed to test the biocidal activity of EO-OPE-1(C3, A), EO-OPE-1 (C2, A), EO-OPE-1 (C3, S) and EO-OPE-1 (Th, C3, A) against E.coli, S.epidermis, and S.aureus. E.coli, S.epidermis, and S.aureus were cultured in 50 mL of Difco™ Nutrient broth (LOT 4057492, Becton, Dickinson and Company, Sparks, Md. 21152 USA), Difco™ Nutrient broth (LOT 4057492, Becton, Dickinson and Company, Sparks, Md. 21152 USA), and BBL™ Brain Heart Infusion (LOT 8263271, Becton, Dickinson and Company, Sparks, Md. 21152 USA), respectively, for 18 h at 37° C. under shaking. The bacteria were collected by centrifuging 50 mL of culture at 4,000 rpm in an Eppendorf centrifuge for 15 min at 4° C. […] Bacterial concentrations were measured and normalized using a disposal hemocytometer (INCYTO Co., Ltd), counts being 2.5˜3.0×10^7/mL. […]
# Dead/live assays were carried out using two sets of stains: SYTO 9/Propidium iodide for E.coli and SYTO 24/Propidium iodide for S.epidermis and S.aureus. SYTO 9 and SYTO 24 are cell membrane permeant nucleic acid stains with green (˜498 nm for SYTO 9 and ˜515 nm for SYTO 24) fluorescence and used to stain both live and dead cells; Propidium iodide is a red-fluorescent nucleic acid stain that is membrane impermeable to viable cells but stains DNA or RNA of dead cells with comprised membranes and emits red (˜617 nm) fluorescence, indicating cell death. […]
smiles,measurement,setting,value
"C[N+](C)(C)CCCOc1ccc(C#Cc2ccc(C#Cc3ccc(OCCC[N+](C)(C)C)cc3)s2)cc1.[I-].[I-] [EO-OPE-1 (Th, C3, A)]",absorbance intensity after 30 min relative to that measured at 1 min,[1]; 10 μM in H2O,the same
same,Fluorescence quantum yields(Φf)*,[1]; in water,0.50 and 0.46 ± 0.02
same,dark antiviral activity against T4 phage,bacteriophage T4,significant dark antiviral activity
same,killing of S. epidermis,S.epidermis,kill
